Measured values as given in ChEMBL document CHEMBL1133844, “2-Benzyl-3,4-iminobutanoic acid as inhibitor of carboxypeptidase A” (Bioorg Med Chem Lett, 2001).

Experiment: The compound was tested for the inhibition of Carboxypeptidase A

Structure (SMILES)	Ki
O=C(O)[C@@H](Cc1ccccc1)C1CC1	646 µM
O=C(O)[C@@H](Cc1ccccc1)[C@H]1CN1	120 µM
O=C(O)[C@H](Cc1ccccc1)C1CC1	803 µM
O=C(O)[C@H](Cc1ccccc1)[C@@H]1CN1	35 µM
O=C(O)C(Cc1ccccc1)C1CC1 (racemic)	792 µM
O=C(O)C(Cc1ccccc1)c1c[nH]cn1 (racemic)	0.8 µM
O=C(O)[C@H](Cc1ccccc1)[C@H]1CN1 (single isomer, unassigned)	230 µM
O=C(O)[C@@H](Cc1ccccc1)[C@@H]1CN1 (single isomer, unassigned)	510 µM
